Read-outs that look alike come from different tables or passages of the source. Each block holds one molecule with its values, some of them ahead of it.
What was measured:
[1] = Relative bioavailability study of voxilaprevir amorphous free acid tablets vs Form VI tablets in healthy subjects (fasted, fed); type: in vivo, human; settings: for AUC(0-inf) / Cmax: human, in vivo, oral, 100 mg
From the text: Accordingly, a spray dried dispersion of voxilaprevir in the amorphous free acid form was selected for incorporation into the tablet formulation.

[2] = Physical (solid-state) stability, XRPD; type: physicochemical; settings: for tendency to crystallize in the presence of pre-existing crystalline voxilaprevir: spiked SOF/VEL SSD/VOX SSD tablets
Description: As described previously, Form VIII of voxilaprevir is characterized by an X-ray powder diffractogram comprising the following peaks (±0.2°): at 7.8, 8.2, and 20.2°2θ, as determined on a diffractometer using Cu-Kα radiation.
Voxilaprevir SSD is hygroscopic, with a reversible weight gain of 11% when cycled between 0% and 90% RH at 25° C.
The impact of voxilaprevir SSD potency on the chemical and physical stability thereof was also evaluated (Table 5). This development study compared the properties of typical voxilaprevir SSD with 50% w/w voxilaprevir/50% w/w copovidone (Lot C) to those of sub-potent voxilaprevir SSD with 40% w/w voxilaprevir/60% w/w copovidone (Lot D) and super-potent voxilaprevir SSD with 60% w/w voxilaprevir/40% w/w copovidone (Lot E). Voxilaprevir SSD was packaged in a designated commercial packaging configuration (i.e., polyethylene bags sealed in aluminum bags with 5% w/w desiccant) and stored for 6 months at both 25° C./60% RH and 40° C./75% RH. […] All samples remained amorphous by XRPD throughout the duration of the study.
The impact of reprocessed voxilaprevir SSD on the chemical and physical stability of voxilaprevir SSD was additionally evaluated. Voxilaprevir was reprocessed (re-dissolved, spray-dried, and secondary dried) twice and packaged in a designated commercial packaging configuration (i.e., polyethylene bags sealed in aluminum bags with 5% w/w desiccant) and stored for 6 months at both 25° C./60% RH and 40° C./75% RH. […] All samples remained amorphous by XRPD throughout the duration of the study.
In some embodiments, the film-coated tablets were packaged in 75 and 100 mL white HDPE bottles (Lots A and B, respectively, as described in Tables 11A, 11B) with 1 g silica gel desiccant canisters and a polyester fiber coil. The 75 and 100 mL HDPE bottles contained fourteen and twenty eight tablets, respectively. […] The packaged tablets (14 and 28 counts) were evaluated for stability at 40° C./75% RH and 25° C./60% RH. Additionally, the 14-count bottles (without cap) were evaluated for stability under open conditions at 40° C./75% RH. […]

[3] = Voxilaprevir Form VI single and multiple oral dose pharmacokinetics in healthy subjects; type: in vivo, human; settings: for Cmax / half-life / Tmax / AUC / AUC(0-inf) / AUC(0-t): human, plasma; for Cmax / AUC / AUC(0-inf) / AUC(0-t): mean
Description: Pub. No. 2015/0175625 A1. Initial studies were conducted using the crystalline Form VI of voxilaprevir. As described previously, Form VI of voxilaprevir is characterized by an X-ray powder diffractogram comprising the following peaks (±0.2°): at 14.6, 15.4, and 20.0°2θ, as determined on a diffractometer using Cu-Kα radiation. Following single and multiple oral doses of voxilaprevir, Form VI, maximum plasma concentrations occurred between 2.0 and 5.0 hours (median tmax). […] Steady-state concentrations of voxilaprevir, Form VI were achieved after 7 days of once-daily dosing across all dose levels (Table 2).

[4] = Tablet dissolution as a function of medium pH and composition (Apparatus II, 75 rpm, 900 mL, 37° C.); type: physicochemical; settings: Formulation G tablets
BCS classification = type: physicochemical
[5] = Tablet dissolution in 50 mM sodium acetate buffer pH 5.0 with 2.0% w/v Polysorbate 80 and 0.001% w/v BHT, 75 rpm, 900 mL, 37° C., USP Type II; type: physicochemical; settings: for dissolution at 30 minutes: after 4 weeks open at 40° C./75% RH
[6] = Storage stability: appearance, assay/label strength (LS), total impurities/degradation products; type: physicochemical; settings: all conditions
Description: In some embodiments, the film-coated tablets were packaged in 75 and 100 mL white HDPE bottles (Lots A and B, respectively, as described in Tables 11A, 11B) with 1 g silica gel desiccant canisters and a polyester fiber coil. The 75 and 100 mL HDPE bottles contained fourteen and twenty eight tablets, respectively. Each HDPE bottle was capped using a white, continuous thread, child-resistant polypropylene screw cap with an […], aluminum-faced line. The packaged tablets (14 and 28 counts) were evaluated for stability at 40° C./75% RH and 25° C./60% RH. Additionally, the 14-count bottles (without cap) were evaluated for stability under open conditions at 40° C./75% RH.
For each of the impact studies, the sofosbuvir/velpatasvir SSD/voxilaprevir SSD tablets were packaged in a designated commercial packaging configuration (28-count, 100 mL HPDE bottle, coil, 1 g desiccant), and stored for 12 weeks at 25° C./60% RH and 40° C./75% RH. Tablets were also packaged in open containers (28-count, 100 mL HPDE bottle without cap) and stored for 4 weeks at 40° C./75% RH and for 1 week at 50° C./92% RH.
The sofosbuvir/velpatasvir SSD/voxilaprevir SSD tablets were packaged in the designated commercial packaging configuration (28-count, 100 mL HPDE bottle, coil, 1 g desiccant), and stored for 6 months at 25° C./60% RH and 40° C./75% RH.

[7] = Tablet dissolution in 50 mM sodium acetate buffer pH 5.0 with 2.0% w/v Polysorbate 80 and 0.001% w/v BHT, 75 rpm, 900 mL, 37° C., USP Type II; type: physicochemical; settings: tablets containing voxilaprevir SSD
Description: FIGS. 10-12 depict additional dissolution profiles for the sofosbuvir/velpatasvir SSD/voxilaprevir SSD tablets having the formulation described in Table 13 and which were used in phase 1, 2, and 3 clinical studies, where the dissolution testing was conducted at pH 5.0 acetate buffer containing 2.0% w/v polysorbate 80. Four batches of the sofosbuvir/velpatasvir SSD/voxilaprevir SSD tablets were tested, with Batch A manufactured at 100 kg and Batches B, C and D manufactured at 145 kg. All other aspects of the formulation and manufacturing process were otherwise equivalent. The four batches were packed in the same commercial configuration: 28 count, 100 mL HPDE bottle with 1 g silica gel desiccant canister and a polyester fiber coil. […] Moreover, for Batch A, the amount dissolved at 30 min remained between 98 and 100% for sofosbuvir, between 90 and 92% for velpatasvir SSD, and between 89 and 93% for voxilaprevir SSD. […] For Batch D, the amount dissolved at 30 min remained at 100% for sofosbuvir, between 90 and 91% for velpatasvir SSD, and between 89 and 91% for voxilaprevir SSD. Release of velpatasvir SSD and voxilaprevir SSD from the sofosbuvir/velpatasvir SSD/voxilaprevir SSD tablets associated with all four Batches was complete after 60 minutes.

[8] = Photostability (light exposure, ICH Q1B); type: physicochemical; settings: tablets film-coated to weight gains of 2.1 to 5.4%, ICH Q1B
Description: In some embodiments, and the Examples presented herein, the tablet formulation includes sofosbuvir having Form 6 and, optionally, a trace amount of Form 7.
Tablet cores and film-coated tablets were evaluated per ICH Q1B guidelines with a total of illumination of more than 1.2 million-lux hours and a total irradiance of more than 200 W·hr/m^2.

[9] = 100 mg tablets, healthy subjects
[10] = Amorphous Free Acid 100 mg, healthy subjects, fed (with moderate food)
[11] = single dose 100 mg, healthy subjects, fasted (N = 15)

higher Cmax compared to tablets (2×50 mg) comprising voxilaprevir, Form VI [1, 9]: ~43%
higher exposure (AUC) compared to tablets (2×50 mg) comprising voxilaprevir, Form VI [1, 9]: approximately 9%
AUC(0-inf) ([1]; Amorphous Free Acid 100 mg, healthy subjects, fasted (N = 15)): 367 ng·h/mL
AUC(0-inf) [1, 10]: 494 ng·h/mL
Cmax [1, 10]: 44.2 ng/mL
AUC(0-inf) [1, 11]: 367 ng·h/mL
Cmax [1, 11]: 32.7 ng/mL
Cmax Geometric Least Square Ratio, Amorphous Free Acid/Form VI GMR ([1]; single dose, fasted): 1.43
tendency to crystallize in the presence of pre-existing crystalline voxilaprevir [2]: no tendency to crystallize
Structure (SMILES): CC[C@@H]1[C@@H]2CN(C(=O)[C@H](C(C)(C)C)NC(=O)O[C@@H]3C[C@H]3CCCCC(F)(F)c3nc4ccc(OC)cc4nc3O2)[C@@H]1C(=O)N[C@]1(C(=O)NS(=O)(=O)C2(C)CC2)C[C@H]1C(F)F [Amorphous Free Acid]

physical stability of crystal form ([2]; converted to crystalline Form VIII): physically metastable
Cmax ([3]; oral, 30 mg, multiple dose 30 mg): 7.3 ng/mL
half-life ([3]; oral, 30 mg, multiple dose 30 mg, median): 41 h
Tmax ([3]; oral, 30 mg, multiple dose 30 mg, median, read-out: tmax): 5 h
Cmax ([3]; oral, 30 mg, single dose 30 mg): 3.7 ng/mL
half-life ([3]; oral, 30 mg, single dose 30 mg, median): 9.37 h
Tmax ([3]; oral, 30 mg, single dose 30 mg, median, read-out: tmax): 4 h
Cmax ([3]; oral, 100 mg, multiple dose 100 mg): 46 ng/mL
half-life ([3]; oral, 100 mg, multiple dose 100 mg, median): 30.5 h
Tmax ([3]; oral, 100 mg, multiple dose 100 mg, median, read-out: tmax): 5 h
Cmax ([3]; oral, 100 mg, single dose 100 mg): 17.6 ng/mL
half-life ([3]; oral, 100 mg, single dose 100 mg, median): 36.7 h
Tmax ([3]; oral, 100 mg, single dose 100 mg, median, read-out: tmax): 3 h
Cmax ([3]; oral, 300 mg, multiple dose 300 mg): 155 ng/mL
half-life ([3]; oral, 300 mg, multiple dose 300 mg, median): 27.6 h
Tmax ([3]; oral, 300 mg, multiple dose 300 mg, median, read-out: tmax): 5 h
Cmax ([3]; oral, 300 mg, single dose 300 mg): 34.5 ng/mL
half-life ([3]; oral, 300 mg, single dose 300 mg, median): 35.5 h
Tmax ([3]; oral, 300 mg, single dose 300 mg, median, read-out: tmax): 2 h
AUC ([3]; oral, multiple dose 30 mg): 74.2 ng·h/mL
AUC ([3]; oral, multiple dose 100 mg): 364 ng·h/mL
AUC ([3]; oral, multiple dose 300 mg): 1030 ng·h/mL
AUC(0-inf) ([3]; oral, single dose 30 mg): 56.9 ng·h/mL
AUC(0-t) ([3]; oral, single dose 30 mg): 33 ng·h/mL
AUC(0-inf) ([3]; oral, single dose 100 mg): 245 ng·h/mL
AUC(0-t) ([3]; oral, single dose 100 mg): 188 ng·h/mL
AUC(0-inf) ([3]; oral, single dose 300 mg): 485 ng·h/mL
AUC(0-t) ([3]; oral, single dose 300 mg): 425 ng·h/mL
Tmax ([3]; po, single and multiple oral doses, read-out: time of maximum plasma concentrations (median tmax)): 2 to 5 h
dose linearity of pharmacokinetics ([3]; single and multiple dosing, 30 to 300 mg, healthy subjects): dose-linear pharmacokinetics
Structure (SMILES): CC[C@@H]1[C@@H]2CN(C(=O)[C@H](C(C)(C)C)NC(=O)O[C@@H]3C[C@H]3CCCCC(F)(F)c3nc4ccc(OC)cc4nc3O2)[C@@H]1C(=O)N[C@]1(C(=O)NS(=O)(=O)C2(C)CC2)C[C@H]1C(F)F [voxilaprevir, Form VI]

tendency to crystallize in the presence of pre-existing crystalline voxilaprevir [2]: no tendency to crystallize
Structure (SMILES): COC[C@H]1C[C@@H](c2ncc(-c3ccc4c(c3)COc3cc5c(ccc6nc([C@@H]7CC[C@H](C)N7C(=O)[C@@H](NC(=O)OC)C(C)C)[nH]c65)cc3-4)[nH]2)N(C(=O)[C@H](NC(=O)OC)c2ccccc2)C1 [amorphous velpatasvir free base]

dissolution at 60 minutes in pH 4.0 and 5.0 containing 2.0% w/v polysorbate 80 [4]: complete dissolution
dissolution in pH 2.0, 4.5 and 6.8 buffers, FaSSIF and FeSSIF [4]: Incomplete dissolution
aqueous solubility, pH dependence (BCS classification): pH-dependent solubility
dissolution at 30 minutes ([5]; SSD potency tablets Lot A): 85%
dissolution at 30 minutes ([5]; SSD potency tablets Lot B): 91%
dissolution at 30 minutes ([5]; SSD potency tablets Lots C and D): 92%
released at 30 minutes ([5]; spiked tablets containing 5% w/w voxilaprevir Form VIII or Form X): 84%
released at 30 minutes ([5]; spiked tablets containing 10% w/w voxilaprevir Form VIII or Form X): 80%
released at 30 minutes ([5]; spiked tablets containing 20% w/w voxilaprevir Form VIII or Form X): 73%
released at 30 minutes ([5]; tablets containing 0% w/w crystalline voxilaprevir): 91%
released at 30 minutes ([5]; tablets containing neat amorphous voxilaprevir free acid (physical mixture with copovidone)): 76%
total impurities/degradation products ([6]; desiccant/packaging study tablets, 6 months): 0.0%
total impurities/degradation products ([6]; tablet Lots A-D from sub-potent/super-potent VEL SSD and VOX SSD): 0.7%
total impurities/degradation products ([6]; tablets from VEL SSD with 6.0% residual ethanol and VOX SSD with 2.1% residual acetone): 0.0%
total impurities/degradation products ([6]; tablets from VEL SSD with 7.0% and VOX SSD with 3.2% water content): 0.0%
released at 30 minutes [7]: 91%
level of degradation products [8]: 0.0%
Structure (SMILES): CC[C@@H]1[C@@H]2CN(C(=O)[C@H](C(C)(C)C)NC(=O)O[C@@H]3C[C@H]3CCCCC(F)(F)c3nc4ccc(OC)cc4nc3O2)[C@@H]1C(=O)N[C@]1(C(=O)NS(=O)(=O)C2(C)CC2)C[C@H]1C(F)F [Voxilaprevir, (1aR,5S,8S,9S,10R,22aR)-5-tert-butyl-N-{(1R,2R)-2-(difluoromethyl)-1-[(1-methylcyclopropanesulfonyl)carbamoyl]cyclopropyl}-9-ethyl-18,18-difluoro-14-methoxy-3,6-dioxo-1,1a,3,4,5,6,9,10,18,19,20,21,22,22a-tetradecahydro-8H-7,10-methanocyclopropa[18,19][1,10,3,6]dioxadiazacyclononadecino[11,12-b]quinoxaline-8-carboxamide]

From patent US10912814B2, “Combination formulation of three antiviral compounds” (priority 2016, dated 2021)
